Experimental data taken from US8236935B2, “Gem-difluorinated C-glycoside compounds derived from podophyllotoxin, their preparation and their applications” (Institut National des Sciences Appliquees de Rouen (INSA), priority 2006, dated 2012).
Where “and” joins values, the source holds several entries; their conditions need not be identical. Equal entries are not always repeated.

Key:
Assay type in all cases: cell-based
KB cells [1] = assay: cytotoxicity test, inhibition of cellular growth, KB cells; settings: 10^−5M; for inhibition percentage of cellular growth / inhibition at 10 µM: triplicate; for inhibition at 10 µM: Homo sapiens, read-out: inhibition percentage of cellular growth
Method: (§1) The first cytotoxicity tests were conducted on different cell lines such as KB, PC3, MCF7 and MCF7R, SF268, HL60, HT29, A549 cells at concentrations of 10^−5M in triplicate. Podophyllotoxin 1 and etoposide 2 were also tested under the same conditions as standards.
(§2) The results are expressed as an inhibition percentage of cellular growth.

PC3 cells = assay: cytotoxicity test, inhibition of cellular growth, PC3 cells; settings: triplicate; for inhibition percentage of cellular growth: 10^−5M
Method: as §1, §2

MCF7 cells = assay: cytotoxicity test, inhibition of cellular growth, MCF7 cells; settings: 10^−5M, triplicate
Method: as §1, §2

MCF7R cells = assay: cytotoxicity test, inhibition of cellular growth, MCF7R cells; settings: 10^−5M, triplicate
Method: as §1, §2

SF268 cells = assay: cytotoxicity test, inhibition of cellular growth, SF268 cells; settings: triplicate; for inhibition percentage of cellular growth: 10^−5M
Method: as §1, §2

HL60 cells = assay: cytotoxicity test, inhibition of cellular growth, HL60 cells; settings: triplicate; for inhibition percentage of cellular growth: 10^−5M
Method: as §1, §2

HT29 cells = assay: cytotoxicity test, inhibition of cellular growth, HT29 cells; settings: triplicate; for inhibition percentage of cellular growth: 10^−5M
Method: as §1, §2

A549 cells = assay: cytotoxicity test, inhibition of cellular growth, A549 cells; settings: 10^−5M, triplicate
Method: as §1, §2

KB cells [2] = assay: IC50 of cytotoxicity on KB cells; settings: in duplicate (two values per cell, separated by /)
Source text: The IC50 values are expressed in μM on KB cells in duplicate and were obtained for the […] leading compounds, i.e. 27a, 32a, 44a, 37a and 46a in parallel with podophyllotoxin and etoposide.

[3] = tested on: KB, PC3, MCF7 and MCF7R, SF268, HL60, HT29, A549 cells; assay: cytotoxicity tests on the panel of cell lines, overall comparison with standards; settings: 10^−5M
Method: as §1, §2

[4] = Homo sapiens, read-out: inhibition percentage of cellular growth

Row | SMILES | inhibition percentage of cellular growth (KB cells [1]) | inhibition percentage of cellular growth (PC3 cells) | inhibition percentage of cellular growth (MCF7 cells) | inhibition percentage of cellular growth (MCF7R cells) | inhibition percentage of cellular growth (SF268 cells) | inhibition percentage of cellular growth (HL60 cells) | inhibition percentage of cellular growth (HT29 cells) | inhibition percentage of cellular growth (A549 cells) | inhibition at 10 µM (KB cells [1]) | IC50 (KB cells [2]) | cytotoxicity compared with etoposide and podophyllotoxin (in words) (KB cells [1]) | further results
1 | COc1cc(C2c3cc4c(cc3C(NC(=O)C(F)(F)C3(O)OC5COC(C)OC5C(O)C3O)C3COC(=O)C23)OCO4)cc(OC)c1OC (stereo not shown) [29a] | 66% | 8% | 40% | 44% | 11% | 17% | 17% | 6% | – | – | – | –
2 | COc1cc(C2c3cc4c(cc3C(NC(=O)C(F)(F)C3(O)OC5COC(C)OC5C(O)C3O)C3COC(=O)C23)OCO4)cc(OC)c1OC (stereo not shown) [29b] | 0% | 3% | 7% | 7% | 6% | 0% | 6% | 1% | – | – | – | –
3 | COc1cc([C@@H]2c3cc4c(cc3[C@@H](O[C@@H]3O[C@@H]5CO[C@@H](C)O[C@H]5[C@H](O)[C@H]3O)[C@H]3COC(=O)[C@H]23)OCO4)cc(OC)c1O [Etoposide, etoposide, reference compound] | 84% | 47% | 57% | 22% | 82% | 75% | 79% | 65% | – | – | – | –
4 | COc1cc([C@@H]2c3cc4c(cc3[C@H](O)[C@H]3COC(=O)[C@H]23)OCO4)cc(OC)c1OC [Podophyllotoxin 1, Podophyllotoxin] | – | – | – | – | – | – | – | – | 90% | 22 nM | – | inhibition at 10 µM (PC3 cells; Homo sapiens, PC-3, 10^−5M, read-out: inhibition percentage of cellular growth): 65%; inhibition at 10 µM (MCF7 cells; [4]): 55%; inhibition at 10 µM (MCF7R cells; [4]): 55%; inhibition at 10 µM (SF268 cells; Homo sapiens, SF-268, 10^−5M, read-out: inhibition percentage of cellular growth): 74%; inhibition at 10 µM (HL60 cells; Homo sapiens, HL-60, 10^−5M, read-out: inhibition percentage of cellular growth): 74%; inhibition at 10 µM (HT29 cells; Homo sapiens, HT-29, 10^−5M, read-out: inhibition percentage of cellular growth): 84%; inhibition at 10 µM (A549 cells; [4]): 83%; IC50 (KB cells [2]; Homo sapiens, KB): 15 nM
5 | COc1cc([C@@H]2c3cc4c(cc3[C@@H](NC(=O)C(F)(F)[C@]3(O)O[C@H](CO)[C@@H](O)[C@H](O)[C@H]3O)[C@H]3COC(=O)[C@H]23)OCO4)cc(OC)c1O [compound 26a] | 43% | 10% | 37% | 35% | 7% | 17% | 10% | 23% | – | – | – | –
6 | COc1cc([C@@H]2c3cc4c(cc3[C@@H](NC(=O)C(F)(F)[C@]3(O)O[C@H](CO)[C@H](O)[C@H](O)[C@H]3O)[C@H]3COC(=O)[C@H]23)OCO4)cc(OC)c1O [compound 26b] | 12% | 8% | 20% | 16% | 7% | 19% | 13% | 7% | – | – | – | –
7 | COc1cc(C2c3cc4c(cc3C(NC(=O)C(F)(F)C3(O)OC(CO)C(O)C(O)C3O)C3COC(=O)C23)OCO4)cc(OC)c1OC (stereo not shown) [compound 27a] | 91% | 63% | 53% | 70% | 65% | 79% | 87% | 78% | – | 3450 nM and 2550 nM | – | activity compared with etoposide and podophyllotoxin (in words) [3]: activity comparable with that of etoposide and of podophyllotoxin, and even better on certain cell lines
8 | COc1cc(C2c3cc4c(cc3C(NC(=O)C(F)(F)C3(O)OC(CO)C(O)C(O)C3O)C3COC(=O)C23)OCO4)cc(OC)c1OC (stereo not shown) [compound 27b] | 12% | 8% | 20% | 10% | 7% | 19% | 8% | 6% | – | – | – | –
9 | COc1cc([C@@H]2c3cc4c(cc3[C@@H](N(C)C(=O)C(F)(F)[C@]3(O)O[C@H](COCc5ccccc5)[C@@H](OCc5ccccc5)[C@H](OCc5ccccc5)[C@H]3OCc3ccccc3)C3COC(=O)[C@@H]32)OCO4)cc(OC)c1OC (stereo partly shown) [compound 31a] | – | – | – | – | – | – | – | – | 22% | – | – | –
10 | COc1cc(C2c3cc4c(cc3C(NCC(F)(F)C3(O)OC(CO)C(O)C(O)C3O)C3COC(=O)C23)OCO4)cc(OC)c1OC (stereo not shown) [compound 32a] | 94% | – | – | – | – | – | – | – | – | – | cytotoxicity close to that of etoposide and podophyllotoxin | –
11 | COc1cc([C@@H]2c3cc4c(cc3[C@@H](NC(=O)C(F)(F)C3(Cl)O[C@H](CO)[C@@H](O)[C@H](O)[C@H]3O)C3COC(=O)[C@@H]32)OCO4)cc(OC)c1OC (stereo partly shown) [compound 37a] | – | – | – | – | – | – | – | – | 91% | 306 nM | cytotoxicity close to that of etoposide and podophyllotoxin | IC50 (KB cells [2]; Homo sapiens, KB): 273 nM
12 | COc1cc([C@@H]2c3cc4c(cc3[C@@H](NC(=O)C(F)(F)[C@@H]3O[C@H](CO)[C@@H](O)[C@H](O)[C@H]3O)C3COC(=O)[C@@H]32)OCO4)cc(OC)c1OC (stereo partly shown) [compound 44a] | – | – | – | – | – | – | – | – | 90% | 341 nM | cytotoxicity close to that of etoposide and podophyllotoxin | IC50 (KB cells [2]; Homo sapiens, KB): 323 nM
13 | COc1cc(C2c3cc4c(cc3C(NCC(F)(F)C3(O)OC5COC(C)OC5C(O)C3O)C3COC(=O)C23)OCO4)cc(OC)c1OC (stereo not shown) [compound 46a] | 86% | – | – | – | – | – | – | – | – | 4710 nM and 6030 nM | cytotoxicity close to that of etoposide and podophyllotoxin | –
